Data set [1] concerns PANC-1. Put plainly: Antiproliferative activity against human PANC-1 cells assessed as inhibition of cell growth measured after 48 hrs by MTT assay. Format: functional, cell-based. As to conditions: PANC-1, 48 h.
Data set [2] relates to MIA PaCa-2. Put plainly: Antiproliferative activity against human MIA PaCa-2 cells assessed as suppression of cell growth at 30 uM measured after 48 hrs by MTT assay. The data set is classed as functional, cell-based. In general terms: Formazan colour is commonly taken as a measure of viable cells.
The test system of data set [3] is MIA PaCa-2. Put plainly: Antiproliferative activity against human MIA PaCa-2 cells assessed as inhibition of cell growth measured after 48 hrs by MTT assay. Format: functional, cell-based. As to conditions: MIA PaCa-2, 48 h.
Data set [4] relates to PANC-1. Put plainly: Inhibition of cell migration in human PANC-1 cells at 10 uM incubated for 12 hrs by crystal violet staining based microscopic analysis. Format: functional.
Data set [5] deals with PANC-1. Description: Antiproliferative activity against human PANC-1 cells assessed as inhibition of cell growth at upto 20 uM measured after 12 hrs by MTT assay. Format: functional, cell-based.
Data set [6] has as its system PANC-1. Put plainly: Inhibition of colony formation in human PANC-1 cells assessed as decrease in colony numbers measured after 24 hrs by crystal violet staining based analysis. The data set is classed as functional, cell-based. As to conditions: dose 1-30 µM.
The nature of data set [7]: Antiproliferative activity against human HPDE cells assessed as inhibition of cell growth measured after 48 hrs by MTT assay. The data set is classed as toxicity, cell-based.
Data set [8] is described as follows: Antiproliferative activity against human HEK293 cells assessed as inhibition of cell growth measured after 48 hrs by MTT assay. The data set is classed as toxicity, cell-based.
A short description of data set [9]: Antiproliferative activity against human IMR-90 cells assessed as inhibition of cell growth measured after 48 hrs by MTT assay. The data set is classed as toxicity, cell-based.
Data set [10] has as its system PANC-1. Put plainly: Inhibition of p53 R273H mutant protein level in human PANC-1 cells at 10 uM measured after 24 hrs by Western blot analysis. Format: functional, cell-based. (In general: In western blotting, separated proteins are transferred to a membrane and probed.)
The subject of data set [11] is MIA PaCa-2. Put plainly: Inhibition of p53 […] mutant protein level in human MIA PaCa-2 cells at 20 uM measured after 24 hrs by Western blot analysis. The data set is classed as functional, cell-based.
The subject of data set [12] is MIA PaCa-2. Put plainly: Inhibition of cell migration in human MIA PaCa-2 cells at 10 uM incubated for 24 hrs by crystal violet staining based microscopic analysis. Format: functional.
Data set [13] deals with MIA PaCa-2. Put plainly: Inhibition of colony formation in human MIA PaCa-2 cells at 1 to 30 uM measured after 24 hrs by crystal violet staining based analysis. The data set is classed as functional, cell-based. As to conditions: dose 1-30 µM.
The subject of data set [14] is PANC-1. Put plainly: Inhibition of p53 R273H protein level in human PANC-1 cells at 15 uM measured after 24 hrs by Western blot analysis. Format: functional, cell-based.

Among the data in ChEMBL document CHEMBL5523676, “Design, synthesis, and anti-cancer evaluation of C-14 arylcarbamate derivatives of andrographolide” (Bioorg Med Chem, 2024) are IC50, Activity and inhibition values, retold here.

As usually defined, the IC50 is the concentration needed to halve the response being measured.

Active and inactive are the calls of the source. The calls are words filed in the database; no cut-off is given here.

Turning to `C=C1CC[C@@H]2[C@]3(C)COC(C)(C)O[C@@H]3CC[C@@]2(C)[C@@H]1C/C=C1/C(=O)OC[C@H]1OC(=O)Nc1cccc(Br)c1`, the IC50 with PANC-1 [1] was found to be 16 µM.

Consider `C=C1CC[C@@H]2[C@]3(C)COC(C)(C)O[C@@H]3CC[C@@]2(C)[C@@H]1C/C=C1/C(=O)OC[C@H]1OC(=O)Nc1cccc(OC)c1`, for which the IC50 with PANC-1 [1] was determined as 10.8 µM.

Take `C=C1CC[C@@H]2[C@]3(C)COC(C)(C)O[C@@H]3CC[C@@]2(C)[C@@H]1C/C=C1/C(=O)OC[C@H]1OC(=O)Nc1ccc(F)cc1F`: the IC50 in the data set on PANC-1 [1] was greater than 30 µM. Further, in the data set on MIA PaCa-2 [2], the result was Active.

On to `C=C1CC[C@@H]2[C@]3(C)COC(C)(C)O[C@@H]3CC[C@@]2(C)[C@@H]1C/C=C1/C(=O)OC[C@H]1OC(=O)Nc1ccc(Br)cc1`, for which the values for the IC50 in the data set on PANC-1 [1] and with MIA PaCa-2 [3] were 10.2 µM and greater than 30 µM, respectively.

On to `C=C1CC[C@@H]2[C@](C)(CO)[C@H](O)CC[C@@]2(C)[C@@H]1C/C=C1/C(=O)OC[C@H]1O` [ANDROGRAPHOLIDE], for which the half-inhibitory concentration (IC50) in the data set on PANC-1 [1] was 20.4 µM; in the data set with MIA PaCa-2 [3] it was 21.1 µM. Besides, the result in the data set with MIA PaCa-2 [2] was Active. The inhibition entry in the data set on PANC-1 [4] is “Active”. Further, the outcome in the data set with PANC-1 [5] was inactive. The inhibition result in the data set with PANC-1 [6] is “Dose-Dependent Effect”.

As to `C=C1CC[C@@H]2[C@]3(C)COC(C)(C)O[C@@H]3CC[C@@]2(C)[C@@H]1C/C=C1/C(=O)OC[C@H]1OC(=O)Nc1ccccc1`, the figures for the IC50 with PANC-1 [1] and in the data set on MIA PaCa-2 [3] were 9.56 µM and 25.7 µM, respectively. For the same compound, the IC50 at 48 h in [7], in data set [8] and in data set [9] was greater than 30 µM throughout. Besides, the inhibition result in the data set on PANC-1 [10], with MIA PaCa-2 [11], with PANC-1 [4], in the data set with MIA PaCa-2 [12] and with MIA PaCa-2 [13] was “Active” throughout. Moreover, in the data set with MIA PaCa-2 [2], the result was Active. Moreover, the result in the data set with PANC-1 [5] was inactive. In addition, in the data set with PANC-1 [6], the inhibition entry is “Dose-Dependent Effect”.

Regarding `C=C1CC[C@@H]2[C@]3(C)COC(C)(C)O[C@@H]3CC[C@@]2(C)[C@@H]1C/C=C1/C(=O)OC[C@H]1OC(=O)Nc1cccc(C#N)c1`, the IC50 in the data set on PANC-1 [1] was 15.2 µM. Moreover, in the data set with PANC-1 [14], the inhibition result is “Active”.

As for `C=C1CC[C@@H]2[C@]3(C)COC(C)(C)O[C@@H]3CC[C@@]2(C)[C@@H]1C/C=C1/C(=O)OC[C@H]1OC(=O)Nc1ccc([N+](=O)[O-])cc1`, in the data set with PANC-1 [1], the IC50 stood at 13.6 µM.

Consider `C=C1CC[C@@H]2[C@]3(C)COC(C)(C)O[C@@H]3CC[C@@]2(C)[C@@H]1C/C=C1/C(=O)OC[C@H]1OC(=O)Nc1ccc(Cl)cc1`, for which the IC50 in the data set with PANC-1 [1] came to 29.1 µM.

As for `C=C1CC[C@@H]2[C@]3(C)COC(C)(C)O[C@@H]3CC[C@@]2(C)[C@@H]1C/C=C1/C(=O)OC[C@H]1OC(=O)Nc1cc(C)cc(C)c1`, the IC50 with PANC-1 [1] was greater than 30 µM.

Turning to `C=C1CC[C@@H]2[C@]3(C)COC(C)(C)O[C@@H]3CC[C@@]2(C)[C@@H]1C/C=C1/C(=O)OC[C@H]1OC(=O)Nc1cccc(C(F)(F)F)c1`, the IC50 in the data set with PANC-1 [1] was greater than 30 µM.

As to `C=C1CC[C@@H]2[C@]3(C)COC(C)(C)O[C@@H]3CC[C@@]2(C)[C@@H]1C/C=C1/C(=O)OC[C@H]1OC(=O)Nc1ccc(NC(C)=O)cc1`, the IC50 in the data set with PANC-1 [1] was greater than 30 µM.

For `C=C1CC[C@@H]2[C@]3(C)COC(C)(C)O[C@@H]3CC[C@@]2(C)[C@@H]1C/C=C1/C(=O)OC[C@H]1OC(=O)Nc1cc(F)ccc1F`, the IC50 was 15.1 µM in the data set on PANC-1 [1] and greater than 30 µM with MIA PaCa-2 [3]. Also, the inhibition entry in the data set with PANC-1 [14] is “Active”.

As to `C=C1CC[C@@H]2[C@]3(C)COC(C)(C)O[C@@H]3CC[C@@]2(C)[C@@H]1C/C=C1/C(=O)OC[C@H]1OC(=O)Nc1cccc(C(C)=O)c1`, the results for the IC50 with PANC-1 [1] and in the data set on MIA PaCa-2 [3] were 10.9 µM and greater than 30 µM, respectively. The inhibition entry in the data set on PANC-1 [10] and in the data set with MIA PaCa-2 [11] was “Active” in each case.
